This test relates to CD2F1 mice, L1210 leukemia sc, survival T/C. In words: NCI In Vivo Anticancer Drug Screen. Data for tumor model L1210 Leukemia (subcutaneous) in CD2F1 (CDF1) mice. To be noted: higher = longer survival. As for the experimental part:
The antitumor activity of compounds was measured in mice bearing transplantable tumors. Survival or tumor size were measured and the results are expressed as the measurement made in the treated group (T) divided by the measurement made in the vehicle treated control group (C). The tumor model used in this assay is L1210 Leukemia (subcutaneous) in CD2F1 (CDF1) mice

Setting [1] is: endpoint: median survival time, dose: 300.0 mg/kg/injection, schedule: Q01DX Z (sc), vehicle: methylcellulose (MC).
Where [2] appears, read: endpoint: median survival time, dose: 108.0 mg/kg/injection, schedule: Q01DX Z (sc), vehicle: water.
Where [3] appears, read: endpoint: median survival time, dose: 180.0 mg/kg/injection, schedule: Q01DX Z (sc), vehicle: water.

“And” between values parts separate entries of the source, which are not always exact repeats. Identical values can stand only once. Inconclusive results and toxic doses are left out.

Regarding `Nc1ccn(C2OC(COP(=O)(O)O)C(O)C2O)c(=O)n1` (stereo not given), the T/C was 181 % of control (endpoint: mean survival time, dose: 22.5 mg/kg/injection, schedule: Q ##X009 (ip), vehicle: saline); 206 % of control (endpoint: mean survival time, dose: 45.0 mg/kg/injection, schedule: Q ##X009 (ip), vehicle: saline); 161 % of control (endpoint: mean survival time, dose: 90.0 mg/kg/injection, schedule: Q ##X009 (ip), vehicle: saline); 176 % of control (endpoint: mean survival time, dose: 180.0 mg/kg/injection, schedule: Q ##X009 (ip), vehicle: saline); 179 % of control (endpoint: median survival time, dose: 22.5 mg/kg/injection, schedule: Q ##X009 (ip), vehicle: saline); 188 % of control (endpoint: median survival time, dose: 22.5 mg/kg/injection, schedule: Q## X Z (ip), vehicle: saline). Moreover, the T/C by setting is: (endpoint: median survival time, dose: 45.0 mg/kg/injection, schedule: Q ##X009 (ip), vehicle: saline) 198 % of control; (endpoint: median survival time, dose: 45.0 mg/kg/injection, schedule: Q## X Z (ip), vehicle: saline) 211 % of control; (endpoint: median survival time, dose: 90.0 mg/kg/injection, schedule: Q ##X009 (ip), vehicle: saline) 175 % of control; (endpoint: median survival time, dose: 90.0 mg/kg/injection, schedule: Q## X Z (ip), vehicle: saline) 183 % of control; (endpoint: median survival time, dose: 180.0 mg/kg/injection, schedule: Q ##X009 (ip), vehicle: saline) 169 % of control; (endpoint: median survival time, dose: 180.0 mg/kg/injection, schedule: Q## X Z (ip), vehicle: saline) 177 % of control.

For `N[C@H](C(=O)O)[C@H]1ON=C(Cl)[C@@H]1O`, the T/C is 114 % of control (endpoint: median survival time, dose: 16.0 mg/kg/injection, schedule: Q01DX009 (sc), vehicle: saline); 152 % of control (endpoint: median survival time, dose: 64.0 mg/kg/injection, schedule: Q01DX009 (sc), vehicle: saline); 120 % of control (endpoint: median survival time, dose: 1024.0 mg/kg/injection, schedule: Q01DX009 (sc), vehicle: saline).

On to `O=C(CSc1ncnc2nc[nH]c12)c1ccccc1`, for which the T/C was 95 % of control (endpoint: median survival time, dose: 38.9 mg/kg/injection, schedule: Q01DX Z (sc), vehicle: methylcellulose (MC)); 95 % of control (endpoint: median survival time, dose: 64.8 mg/kg/injection, schedule: Q01DX Z (sc), vehicle: methylcellulose (MC)); 100 % of control (endpoint: median survival time, dose: 108.0 mg/kg/injection, schedule: Q01DX Z (sc), vehicle: methylcellulose (MC)); 100 % of control (endpoint: median survival time, dose: 180.0 mg/kg/injection, schedule: Q01DX Z (sc), vehicle: methylcellulose (MC)); 100 % of control under setting [1]; 100 % of control (endpoint: median survival time, dose: 500.0 mg/kg/injection, schedule: Q01DX Z (sc), vehicle: methylcellulose (MC)).

In the case of `Nc1nc(=S)c2[nH]cnc2[nH]1`, the T/C (endpoint: median survival time, dose: 2.16 mg/kg/injection, schedule: Q01DX Z (sc), vehicle: other) was 177 % of control; the T/C (endpoint: median survival time, dose: 3.6 mg/kg/injection, schedule: Q01DX Z (sc), vehicle: other) is 177 % of control; the T/C (endpoint: median survival time, dose: 6.0 mg/kg/injection, schedule: Q01DX Z (sc), vehicle: other) is 177 % of control; the T/C (endpoint: median survival time, dose: 10.1 mg/kg/injection, schedule: Q01DX Z (sc), vehicle: other) was 166 % of control; the T/C (endpoint: median survival time, dose: 16.9 mg/kg/injection, schedule: Q01DX Z (sc), vehicle: other) is 161 % of control.

`Cc1cccnc1`: the T/C runs as follows: under setting [2], 100 % of control; under setting [3], 100 % of control.

Regarding `COc1cccc2c1C(=O)c1c(O)c3c(c(O)c1C2=O)C[C@@](O)(C(=O)CO)C[C@@H]3OC1CC(OC(C)=O)C(OC(C)=O)C(C)O1` (stereo not given in full), the T/C was 106 % of control (endpoint: median survival time, dose: 1.56 mg/kg/injection, schedule: Q01DX009 (ip), vehicle: distilled water + Tween-80); 105 % of control (endpoint: median survival time, dose: 1.57 mg/kg/injection, schedule: Q01DX009 (ip), vehicle: distilled water + Tween-80); 105 % of control and 114 % of control (endpoint: median survival time, dose: 3.13 mg/kg/injection, schedule: Q01DX009 (ip), vehicle: distilled water + Tween-80); 182 % of control and 195 % of control (endpoint: median survival time, dose: 12.5 mg/kg/injection, schedule: Q01DX009 (ip), vehicle: distilled water + Tween-80).

With `NCCCN=c1ccc2c3c1c(O)c1c(O)ccc(=O)c1c3[nH]n2CCNCCO`, the T/C is, setting by setting: (endpoint: median survival time, dose: 0.8 mg/kg/injection, schedule: Q03HX024 (ip), vehicle: saline) 118 % of control; (endpoint: median survival time, dose: 2.2 mg/kg/injection, schedule: Q03HX024 (ip), vehicle: saline) 161 % of control; (endpoint: median survival time, dose: 2.34 mg/kg/injection, schedule: Q03HX008 (ip), vehicle: saline) 124 % of control; (endpoint: median survival time, dose: 3.46 mg/kg/injection, schedule: Q01DX009 (ip), vehicle: water) 114 % of control; (endpoint: median survival time, dose: 3.6 mg/kg/injection, schedule: Q03HX024 (ip), vehicle: saline) 212 % of control; (endpoint: median survival time, dose: 3.7 mg/kg/injection, schedule: Q01DX005 (ip), vehicle: saline) 121 % of control. Also, the T/C (endpoint: median survival time, dose: 3.7 mg/kg/injection, schedule: Q04DX003 (ip), vehicle: saline) is 115 % of control; the T/C (endpoint: median survival time, dose: 5.7 mg/kg/injection, schedule: Q01DX009 (ip), vehicle: water) is 121 % of control; the T/C (endpoint: median survival time, dose: 6.2 mg/kg/injection, schedule: Q04DX003 (ip), vehicle: saline) is 110 % of control; the T/C (endpoint: median survival time, dose: 6.4 mg/kg/injection, schedule: Q03HX008 (ip), vehicle: saline) was 175 % of control; the T/C (endpoint: median survival time, dose: 9.6 mg/kg/injection, schedule: Q01DX009 (ip), vehicle: saline) was 207 % of control; the T/C (endpoint: median survival time, dose: 10.4 mg/kg/injection, schedule: Q01DX005 (ip), vehicle: saline) was 182 % of control. For the same compound, the T/C is 86 % of control (endpoint: median survival time, dose: 10.4 mg/kg/injection, schedule: Q03HX008 (ip), vehicle: saline); 120 % of control (endpoint: median survival time, dose: 11.2 mg/kg/injection, schedule: Q01DX001 (ip), vehicle: saline); 121 % of control (endpoint: median survival time, dose: 16.0 mg/kg/injection, schedule: Q01DX009 (ip), vehicle: saline); 208 % of control (endpoint: median survival time, dose: 16.0 mg/kg/injection, schedule: Q01DX009 (ip), vehicle: water); 215 % of control (endpoint: median survival time, dose: 17.3 mg/kg/injection, schedule: Q01DX005 (ip), vehicle: saline); 153 % of control (endpoint: median survival time, dose: 17.3 mg/kg/injection, schedule: Q04DX003 (ip), vehicle: saline). Besides, the T/C runs as follows: (endpoint: median survival time, dose: 18.7 mg/kg/injection, schedule: Q01DX001 (ip), vehicle: saline) 119 % of control; (endpoint: median survival time, dose: 26.7 mg/kg/injection, schedule: Q01DX009 (ip), vehicle: saline) 95 % of control; (endpoint: median survival time, dose: 26.7 mg/kg/injection, schedule: Q01DX009 (ip), vehicle: water) 96 % of control; (endpoint: median survival time, dose: 28.8 mg/kg/injection, schedule: Q01DX005 (ip), vehicle: saline) 107 % of control; (endpoint: median survival time, dose: 28.8 mg/kg/injection, schedule: Q04DX003 (ip), vehicle: saline) 182 % of control; (endpoint: median survival time, dose: 48.0 mg/kg/injection, schedule: Q04DX003 (ip), vehicle: saline) 268 % of control. The T/C (endpoint: median survival time, dose: 51.3 mg/kg/injection, schedule: Q01DX001 (ip), vehicle: saline) was 153 % of control; the T/C (endpoint: median survival time, dose: 80.0 mg/kg/injection, schedule: Q04DX003 (ip), vehicle: saline) was 118 % of control; the T/C (endpoint: median survival time, dose: 86.4 mg/kg/injection, schedule: Q01DX001 (ip), vehicle: saline) is 225 % of control.

Take `C[C@]12CCC(=O)C=C1CC[C@@H]1[C@@H]2[C@@H](O)C[C@@]2(C)[C@H]1CC[C@]2(O)C(=O)CO`: the T/C under setting [1] is 115 % of control.

As for `CN(C)CCN1C(=O)c2cccc3cc(N)cc(c23)C1=O`, the T/C by setting is: (endpoint: median survival time, dose: 5.0 mg/kg/injection, schedule: Q01DX009 (ip), vehicle: acid diluted with saline) 102 % of control and 105 % of control and 118 % of control; (endpoint: median survival time, dose: 7.0 mg/kg/injection, schedule: Q01DX009 (ip), vehicle: acid diluted with saline) 103 % of control and 115 % of control and 121 % of control; (endpoint: median survival time, dose: 10.0 mg/kg/injection, schedule: Q01DX009 (ip), vehicle: acid diluted with saline) 112 % of control; (endpoint: median survival time, dose: 16.0 mg/kg/injection, schedule: Q01DX009 (ip), vehicle: acid diluted with saline) 150 % of control and 173 % of control; (endpoint: median survival time, dose: 24.0 mg/kg/injection, schedule: Q01DX009 (ip), vehicle: acid diluted with saline) 116 % of control.

For the compound `CC(C)CCNc1ncnc2c1cnn2C`, the T/C (endpoint: median survival time, dose: 23.0 mg/kg/injection, schedule: Q01DX Z (sc), vehicle: water) is 100 % of control; the T/C (endpoint: median survival time, dose: 39.0 mg/kg/injection, schedule: Q01DX Z (sc), vehicle: water) is 100 % of control; the T/C (endpoint: median survival time, dose: 65.0 mg/kg/injection, schedule: Q01DX Z (sc), vehicle: water) is 100 % of control; the T/C under setting [2] was 109 % of control; the T/C under setting [3] is 100 % of control.
